Measurements published in patent publication US12479847B2 (DANA-FARBER CANCER INSTITUTE, INC., priority 2019, dated 2025).
Where two headings read alike, the source gives them in different places.

Key:
Assay in all cases: KINOMEscan (ScanMAX) kinase profiling
Format in all cases: binding
panel of 468 kinases [1] = target: T1, panel of 468 kinases (Homo sapiens, UniProt P10721); settings: 1 μM, read-out: % control
T1 construct: purchased KINOMEscan (ScanMAX) service

panel of 468 kinases [2] = target: T2, panel of 468 kinases (Homo sapiens, UniProt P42336); settings: PIK3CA; 1 μM; read-out: % control
T2 construct: purchased KINOMEscan (ScanMAX) service

panel of 468 kinases [3] = target: T3, panel of 468 kinases (Homo sapiens, UniProt Q96PY6); settings: NEK1; 1 μM; read-out: % control
T3 construct: purchased KINOMEscan (ScanMAX) service
T3 sequence (Q96PY6 1-1258): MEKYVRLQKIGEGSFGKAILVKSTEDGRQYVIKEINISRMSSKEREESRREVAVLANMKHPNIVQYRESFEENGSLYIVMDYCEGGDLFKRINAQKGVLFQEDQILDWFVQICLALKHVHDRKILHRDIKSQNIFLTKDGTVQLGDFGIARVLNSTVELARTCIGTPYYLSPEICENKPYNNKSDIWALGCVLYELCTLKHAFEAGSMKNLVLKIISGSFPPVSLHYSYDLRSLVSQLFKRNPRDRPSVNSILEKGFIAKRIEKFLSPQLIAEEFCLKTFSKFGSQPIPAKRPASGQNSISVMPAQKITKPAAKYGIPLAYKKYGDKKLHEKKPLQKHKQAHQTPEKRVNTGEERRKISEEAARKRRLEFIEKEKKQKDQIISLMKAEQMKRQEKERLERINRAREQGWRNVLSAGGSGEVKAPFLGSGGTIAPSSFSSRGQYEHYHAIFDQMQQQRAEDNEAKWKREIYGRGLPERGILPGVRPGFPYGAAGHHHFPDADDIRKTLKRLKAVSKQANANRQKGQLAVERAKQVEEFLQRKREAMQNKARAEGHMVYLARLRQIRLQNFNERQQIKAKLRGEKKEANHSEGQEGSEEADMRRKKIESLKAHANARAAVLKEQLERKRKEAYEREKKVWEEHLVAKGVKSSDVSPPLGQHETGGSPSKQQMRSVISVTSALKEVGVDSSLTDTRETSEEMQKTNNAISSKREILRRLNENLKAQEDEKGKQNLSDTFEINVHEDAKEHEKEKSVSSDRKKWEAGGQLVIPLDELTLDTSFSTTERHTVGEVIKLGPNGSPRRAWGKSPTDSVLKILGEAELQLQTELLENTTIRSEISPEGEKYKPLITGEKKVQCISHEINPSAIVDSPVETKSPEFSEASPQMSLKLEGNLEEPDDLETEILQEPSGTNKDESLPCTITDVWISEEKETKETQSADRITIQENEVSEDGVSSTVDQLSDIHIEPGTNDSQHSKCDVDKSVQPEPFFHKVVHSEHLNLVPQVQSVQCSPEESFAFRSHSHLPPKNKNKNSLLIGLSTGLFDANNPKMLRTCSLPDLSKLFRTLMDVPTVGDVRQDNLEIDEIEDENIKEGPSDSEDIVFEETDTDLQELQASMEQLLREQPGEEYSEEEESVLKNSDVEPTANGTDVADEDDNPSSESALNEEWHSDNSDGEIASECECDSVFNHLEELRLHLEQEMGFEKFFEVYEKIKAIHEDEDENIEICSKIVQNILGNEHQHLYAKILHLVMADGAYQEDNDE

panel of 468 kinases [4] = target: T4, panel of 468 kinases (Homo sapiens, UniProt Q9BX84); settings: TRPM6; 1 μM; read-out: % control
T4 construct: purchased KINOMEscan (ScanMAX) service

panel of 468 kinases [5] = target: T5, panel of 468 kinases (Homo sapiens, UniProt Q9Y2U5); settings: MAP3K2; 1 μM; read-out: % control
T5 construct: purchased KINOMEscan (ScanMAX) service
T5 sequence (Q9Y2U5 1-619): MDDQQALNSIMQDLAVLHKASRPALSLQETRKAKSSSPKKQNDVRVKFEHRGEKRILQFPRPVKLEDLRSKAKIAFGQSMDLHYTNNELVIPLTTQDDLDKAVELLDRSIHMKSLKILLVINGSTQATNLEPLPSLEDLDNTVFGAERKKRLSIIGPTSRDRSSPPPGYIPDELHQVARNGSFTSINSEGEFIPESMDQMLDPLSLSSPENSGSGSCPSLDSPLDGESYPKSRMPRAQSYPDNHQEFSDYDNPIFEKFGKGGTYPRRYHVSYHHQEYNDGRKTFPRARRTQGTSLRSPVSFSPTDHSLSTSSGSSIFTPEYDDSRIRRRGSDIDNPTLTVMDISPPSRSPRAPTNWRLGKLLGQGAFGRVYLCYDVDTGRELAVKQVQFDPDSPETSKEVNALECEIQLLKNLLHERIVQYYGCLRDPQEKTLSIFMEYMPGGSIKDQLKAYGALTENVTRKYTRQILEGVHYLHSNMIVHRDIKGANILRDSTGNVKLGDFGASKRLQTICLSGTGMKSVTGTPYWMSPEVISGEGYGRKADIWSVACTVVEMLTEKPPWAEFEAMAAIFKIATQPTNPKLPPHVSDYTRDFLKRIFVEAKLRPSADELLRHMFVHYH

T2 sequence (P42336 whole entry): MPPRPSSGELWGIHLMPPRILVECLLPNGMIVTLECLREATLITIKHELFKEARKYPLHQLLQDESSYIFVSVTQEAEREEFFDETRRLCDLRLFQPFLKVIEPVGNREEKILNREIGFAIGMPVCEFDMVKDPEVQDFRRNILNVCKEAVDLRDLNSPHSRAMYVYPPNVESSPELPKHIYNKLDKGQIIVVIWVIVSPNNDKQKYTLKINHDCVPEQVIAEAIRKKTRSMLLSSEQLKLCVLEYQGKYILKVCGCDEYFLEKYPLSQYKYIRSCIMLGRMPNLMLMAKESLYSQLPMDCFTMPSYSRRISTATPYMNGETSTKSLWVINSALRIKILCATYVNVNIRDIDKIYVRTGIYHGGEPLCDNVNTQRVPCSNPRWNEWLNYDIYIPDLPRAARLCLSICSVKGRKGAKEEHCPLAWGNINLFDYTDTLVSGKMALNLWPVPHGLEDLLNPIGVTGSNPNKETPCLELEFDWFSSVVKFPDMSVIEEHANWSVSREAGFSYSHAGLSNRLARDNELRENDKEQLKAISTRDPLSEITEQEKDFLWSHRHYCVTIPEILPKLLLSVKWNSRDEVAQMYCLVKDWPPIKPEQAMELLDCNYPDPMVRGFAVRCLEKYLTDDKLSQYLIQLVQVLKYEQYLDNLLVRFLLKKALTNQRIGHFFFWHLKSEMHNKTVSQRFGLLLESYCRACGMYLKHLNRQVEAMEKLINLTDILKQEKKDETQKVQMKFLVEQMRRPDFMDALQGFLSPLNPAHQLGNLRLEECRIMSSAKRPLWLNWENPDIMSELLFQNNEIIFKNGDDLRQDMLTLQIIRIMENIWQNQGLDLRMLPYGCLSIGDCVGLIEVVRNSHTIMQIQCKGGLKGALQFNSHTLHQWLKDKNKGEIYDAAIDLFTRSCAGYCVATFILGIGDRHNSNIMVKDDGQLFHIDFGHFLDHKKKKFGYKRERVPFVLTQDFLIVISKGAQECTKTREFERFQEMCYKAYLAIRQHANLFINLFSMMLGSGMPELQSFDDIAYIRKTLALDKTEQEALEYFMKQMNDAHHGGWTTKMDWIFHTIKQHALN
T4 sequence (Q9BX84 whole entry): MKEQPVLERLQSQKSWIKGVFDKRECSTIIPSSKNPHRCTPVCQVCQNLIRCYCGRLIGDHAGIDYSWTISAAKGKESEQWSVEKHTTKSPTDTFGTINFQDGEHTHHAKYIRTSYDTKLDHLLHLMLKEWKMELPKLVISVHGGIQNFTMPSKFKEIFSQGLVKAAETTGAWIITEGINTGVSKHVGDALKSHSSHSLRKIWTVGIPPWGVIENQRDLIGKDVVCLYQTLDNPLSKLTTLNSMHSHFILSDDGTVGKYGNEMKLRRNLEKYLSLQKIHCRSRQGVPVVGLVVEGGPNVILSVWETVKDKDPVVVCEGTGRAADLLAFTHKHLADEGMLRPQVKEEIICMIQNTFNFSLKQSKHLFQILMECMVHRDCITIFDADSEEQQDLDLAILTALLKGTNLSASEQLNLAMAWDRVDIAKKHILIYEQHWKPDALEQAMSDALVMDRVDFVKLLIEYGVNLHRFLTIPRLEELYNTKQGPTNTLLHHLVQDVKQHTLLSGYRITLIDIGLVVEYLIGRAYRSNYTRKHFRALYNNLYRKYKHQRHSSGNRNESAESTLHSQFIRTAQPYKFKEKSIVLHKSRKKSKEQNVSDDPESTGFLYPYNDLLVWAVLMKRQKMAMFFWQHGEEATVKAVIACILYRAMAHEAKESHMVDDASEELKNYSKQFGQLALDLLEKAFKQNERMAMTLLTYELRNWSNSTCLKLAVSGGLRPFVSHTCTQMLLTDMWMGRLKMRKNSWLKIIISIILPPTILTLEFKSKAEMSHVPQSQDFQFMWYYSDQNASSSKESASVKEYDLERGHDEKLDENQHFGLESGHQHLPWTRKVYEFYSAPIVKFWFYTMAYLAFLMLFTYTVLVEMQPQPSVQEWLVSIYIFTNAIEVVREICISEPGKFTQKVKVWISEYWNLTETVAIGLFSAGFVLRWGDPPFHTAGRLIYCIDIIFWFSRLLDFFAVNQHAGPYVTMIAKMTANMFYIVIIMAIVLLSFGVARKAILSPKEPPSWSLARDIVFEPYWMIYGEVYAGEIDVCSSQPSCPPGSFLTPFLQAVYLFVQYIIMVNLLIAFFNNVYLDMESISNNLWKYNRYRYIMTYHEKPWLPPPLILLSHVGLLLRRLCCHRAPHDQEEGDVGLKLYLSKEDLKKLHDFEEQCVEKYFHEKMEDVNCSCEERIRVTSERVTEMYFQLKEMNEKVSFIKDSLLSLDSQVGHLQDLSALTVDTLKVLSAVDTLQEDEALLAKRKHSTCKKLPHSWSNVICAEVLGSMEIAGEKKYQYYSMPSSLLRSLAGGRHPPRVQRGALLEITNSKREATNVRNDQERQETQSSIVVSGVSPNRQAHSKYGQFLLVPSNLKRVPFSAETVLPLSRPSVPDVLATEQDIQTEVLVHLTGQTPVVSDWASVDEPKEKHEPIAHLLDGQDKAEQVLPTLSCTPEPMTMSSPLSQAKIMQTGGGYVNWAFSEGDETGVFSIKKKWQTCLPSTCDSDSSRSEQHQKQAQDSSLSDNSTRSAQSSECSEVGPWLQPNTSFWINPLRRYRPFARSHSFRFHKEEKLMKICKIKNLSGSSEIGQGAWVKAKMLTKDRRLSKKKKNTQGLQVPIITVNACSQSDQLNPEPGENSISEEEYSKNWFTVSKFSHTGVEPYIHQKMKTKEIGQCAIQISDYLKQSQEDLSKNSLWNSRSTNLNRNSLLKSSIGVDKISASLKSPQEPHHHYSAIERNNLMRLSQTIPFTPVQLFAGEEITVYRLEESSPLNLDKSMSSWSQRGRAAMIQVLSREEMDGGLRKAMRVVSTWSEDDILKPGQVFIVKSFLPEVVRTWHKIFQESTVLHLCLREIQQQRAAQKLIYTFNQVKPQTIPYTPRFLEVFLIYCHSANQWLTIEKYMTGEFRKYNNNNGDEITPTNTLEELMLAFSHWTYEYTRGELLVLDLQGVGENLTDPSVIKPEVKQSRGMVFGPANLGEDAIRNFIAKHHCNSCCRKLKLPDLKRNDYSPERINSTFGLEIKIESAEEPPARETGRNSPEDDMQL
T1 sequence (P10721 26-976): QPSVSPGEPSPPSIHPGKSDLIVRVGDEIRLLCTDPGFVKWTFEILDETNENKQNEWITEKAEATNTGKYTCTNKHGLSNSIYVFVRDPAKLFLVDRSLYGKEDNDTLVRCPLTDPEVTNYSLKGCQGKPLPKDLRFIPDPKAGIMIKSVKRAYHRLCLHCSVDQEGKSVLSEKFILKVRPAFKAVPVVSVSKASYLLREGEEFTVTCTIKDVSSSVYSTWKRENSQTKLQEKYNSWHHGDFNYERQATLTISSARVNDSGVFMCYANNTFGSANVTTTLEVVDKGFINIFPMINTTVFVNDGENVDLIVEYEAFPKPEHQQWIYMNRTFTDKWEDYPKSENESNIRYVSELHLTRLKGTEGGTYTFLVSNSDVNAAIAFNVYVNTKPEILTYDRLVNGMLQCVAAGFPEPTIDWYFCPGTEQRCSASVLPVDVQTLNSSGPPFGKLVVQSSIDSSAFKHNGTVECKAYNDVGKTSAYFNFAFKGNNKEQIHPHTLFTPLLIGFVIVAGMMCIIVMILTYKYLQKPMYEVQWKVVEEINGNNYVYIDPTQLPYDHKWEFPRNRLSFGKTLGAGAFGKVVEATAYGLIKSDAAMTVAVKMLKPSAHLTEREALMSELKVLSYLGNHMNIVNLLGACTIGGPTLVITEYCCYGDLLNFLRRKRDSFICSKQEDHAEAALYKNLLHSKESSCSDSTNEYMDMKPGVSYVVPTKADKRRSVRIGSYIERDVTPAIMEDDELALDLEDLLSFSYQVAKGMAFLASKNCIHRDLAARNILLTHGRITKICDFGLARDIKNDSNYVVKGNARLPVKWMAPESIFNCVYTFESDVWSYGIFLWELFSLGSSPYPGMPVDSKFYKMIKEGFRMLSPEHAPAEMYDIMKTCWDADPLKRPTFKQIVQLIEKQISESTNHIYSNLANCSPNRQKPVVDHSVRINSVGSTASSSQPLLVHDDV

Compound `CNc1nc(Nc2ccc(S(=O)(=O)N3CCC(N4CCOCC4)CC3)cc2OC)nc2[nH]cc(Cl)c12` [Compound 12, 5-chloro-N2-(2-methoxy-4-((4-morpholinopiperidin-1-yl)sulfonyl)phenyl)-N4-methyl-7H-pyrrolo[2,3-d]pyrimidine-2,4-diamine] has a remaining binding at 1 µM (panel of 468 kinases [1]; KIT-autoinhibited) of 95%, a remaining binding at 1 µM (panel of 468 kinases [1]; KIT) of 100% and a remaining binding at 1 µM (panel of 468 kinases [2]) of 97%. It also gave a remaining binding at 1 µM (panel of 468 kinases [3]) of 100%, a remaining binding at 1 µM (panel of 468 kinases [4]) of 79% and a remaining binding at 1 µM (panel of 468 kinases [5]) of 80%.

For `CNc1nc(Nc2ccc(P3(=O)CCN(C4CCOCC4)CC3)cc2OC)nc2[nH]cc(Cl)c12` [Compound 77, 4-(4-((5-chloro-4-(methylamino)-7H-pyrrolo[2,3-d]pyrimidin-2-yl)amino)-3-methoxyphenyl)-1-(tetrahydro-2H-pyran-4-yl)-1,4-azaphosphinane 4-oxide], the remaining binding at 1 µM (panel of 468 kinases [1]; KIT-autoinhibited) was 93%, the remaining binding at 1 µM (panel of 468 kinases [1]; KIT) was 99% and the remaining binding at 1 µM (panel of 468 kinases [2]) was 100%. For the same compound, the remaining binding at 1 µM (panel of 468 kinases [3]) was 98%, the remaining binding at 1 µM (panel of 468 kinases [4]) was 88% and the remaining binding at 1 µM (panel of 468 kinases [5]) was 86%.

`CNc1nc(Nc2ccc(C(=O)N3CCC(N4CCOCC4)CC3)c3c2OCO3)nc2[nH]cc(Cl)c12` [Compound 75, (7-((5-chloro-4-(methylamino)-7H-pyrrolo[2,3-d]pyrimidin-2-yl)amino)benzo[d][1,3]dioxol-4-yl)(4-morpholinopiperidin-1-yl)methanone] showed a remaining binding at 1 µM (panel of 468 kinases [1]; KIT-autoinhibited) of 68%, a remaining binding at 1 µM (panel of 468 kinases [1]; KIT) of 65% and a remaining binding at 1 µM (panel of 468 kinases [2]) of 93%. For the same compound, the remaining binding at 1 µM (panel of 468 kinases [3]) was 88%, the remaining binding at 1 µM (panel of 468 kinases [4]) was 85% and the remaining binding at 1 µM (panel of 468 kinases [5]) was 15%.
